Laboratory results from PubChem BioAssay AID248 (DTP/NCI, 2004).
“And” between values parts separate entries of the source, which are not always exact repeats. Identical values can stand only once. Inconclusive results and toxic doses are left out.

Tested on: L1210 leukemia ip in BDF1 mice, survival T/C
Assay: NCI In Vivo Anticancer Drug Screen. Data for tumor model L1210 Leukemia (intraperitoneal) in B6D2F1 (BDF1) mice
Conditions: endpoint: mean survival time, higher = longer survival
In short: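 Ratio derived from survival: compound-dosed mice over vehicle-dosed mice, all bearing a transplantable tumor.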

[1] = dose: 12.5 mg/kg/injection, schedule: Q04DX002 (ip), vehicle: saline with Tween-80
[2] = dose: 25.0 mg/kg/injection, schedule: Q04DX002 (ip), vehicle: saline with Tween-80
[3] = dose: 100.0 mg/kg/injection, schedule: Q01DX001 (ip), vehicle: Klucel (hydroxypropylcellulose) (HPC)
[4] = dose: 200.0 mg/kg/injection, schedule: Q01DX001 (ip), vehicle: Klucel (hydroxypropylcellulose) (HPC)
[5] = dose: 400.0 mg/kg/injection, schedule: Q01DX001 (ip), vehicle: Klucel (hydroxypropylcellulose) (HPC)
[6] = dose: 50.0 mg/kg/injection, schedule: Q04DX002 (ip), vehicle: saline with Tween-80
[7] = dose: 100.0 mg/kg/injection, schedule: Q04DX002 (ip), vehicle: saline with Tween-80
[8] = dose: 200.0 mg/kg/injection, schedule: Q04DX002 (ip), vehicle: saline with Tween-80
[9] = dose: 100.0 mg/kg/injection, schedule: Q01DX001 (ip), vehicle: saline with Tween-80
[10] = dose: 200.0 mg/kg/injection, schedule: Q01DX001 (ip), vehicle: saline with Tween-80
[11] = dose: 400.0 mg/kg/injection, schedule: Q01DX001 (ip), vehicle: saline with Tween-80
[12] = dose: 100.0 mg/kg/injection, schedule: Q04DX003 (ip), vehicle: saline with Tween-80
[13] = dose: 200.0 mg/kg/injection, schedule: Q04DX003 (ip), vehicle: saline with Tween-80
[14] = dose: 400.0 mg/kg/injection, schedule: Q04DX003 (ip), vehicle: saline with Tween-80

O=c1[nH]c(=O)n(C2CCCCO2)cc1F (stereo not given)
T/C (dose: 2.5 mg/kg/injection, schedule: Q01DX009 (ip), vehicle: saline): 100 % of control
T/C (dose: 5.0 mg/kg/injection, schedule: Q01DX009 (ip), vehicle: saline): 104 % of control
T/C (dose: 10.0 mg/kg/injection, schedule: Q01DX009 (ip), vehicle: saline): 94 % of control
T/C (dose: 20.0 mg/kg/injection, schedule: Q01DX009 (ip), vehicle: saline): 96 % of control
T/C (dose: 40.0 mg/kg/injection, schedule: Q01DX009 (ip), vehicle: saline): 100 % of control
T/C (dose: 80.0 mg/kg/injection, schedule: Q01DX009 (ip), vehicle: saline): 96 % of control
T/C (dose: 160.0 mg/kg/injection, schedule: Q01DX009 (ip), vehicle: saline): 98 % of control

CCCCCCCCCCCCCCCC1CCCC(C)N1 (stereo not given)
T/C (dose: 6.25 mg/kg/injection, schedule: Q04DX002 (ip), vehicle: saline with Tween-80): 104 % of control
T/C [1]: 96 % of control
T/C [2]: 100 % of control

O=C(Nc1ccc(O)cc1)c1ccc(C(=O)Nc2ccc(O)cc2)cc1
T/C (dose: 15.0 mg/kg/injection, schedule: Q01DX Z (ip), vehicle: methylcellulose (MC)): 112 % of control
T/C (dose: 30.0 mg/kg/injection, schedule: Q01DX Z (ip), vehicle: methylcellulose (MC)): 93 % of control
T/C (dose: 60.0 mg/kg/injection, schedule: Q01DX Z (ip), vehicle: methylcellulose (MC)): 98 % of control
T/C (dose: 120.0 mg/kg/injection, schedule: Q01DX Z (ip), vehicle: methylcellulose (MC)): 98 % of control

CCC(C(=O)O)N1C(=O)c2ccccc2C1=O (stereo not given)
T/C (dose: 100.0 mg/kg/injection, schedule: Q01DX001 (ip), vehicle: saline): 102 % of control
T/C (dose: 200.0 mg/kg/injection, schedule: Q01DX001 (ip), vehicle: saline): 97 % of control
T/C (dose: 400.0 mg/kg/injection, schedule: Q01DX001 (ip), vehicle: saline): 103 % of control

Cc1ccc(N2C(=O)CNC2=O)cc1
T/C [3]: 101 % of control
T/C [4]: 101 % of control
T/C [5]: 96 % of control

C#C/C(CCC)=N\Nc1ccc([N+](=O)[O-])cc1[N+](=O)[O-]
T/C [6]: 88 % of control
T/C [7]: 94 % of control
T/C [8]: 88 % of control

O=C1C2CCN(CC2)C1CNC1(c2ccccc2)CCCCC1 (stereo not given)
T/C (dose: 50.0 mg/kg/injection, schedule: Q01DX001 (ip), vehicle: Klucel (hydroxypropylcellulose) (HPC)): 98 % of control
T/C [3]: 92 % of control
T/C [4]: 92 % of control

OC(CF)CCl (stereo not given)
T/C (dose: 6.25 mg/kg/injection, schedule: Q01DX009 (ip), vehicle: saline): 89 % of control
T/C (dose: 12.5 mg/kg/injection, schedule: Q01DX009 (ip), vehicle: saline): 96 % of control
T/C (dose: 25.0 mg/kg/injection, schedule: Q01DX009 (ip), vehicle: saline): 103 % of control

Nc1cccc(CNc2ccc(C(=O)O)cc2)c1
T/C [9]: 113 % of control
T/C [10]: 103 % of control
T/C [11]: 98 % of control

O=NN(CCCl)C(=O)Nc1ccc(S(=O)(=O)c2ccc(NC(=O)N(CCCl)N=O)cc2)cc1
T/C (dose: 100.0 mg/kg/injection, schedule: Q01DX009 (ip), vehicle: carboxymethylcellulose (CMC)): 184 % of control
T/C (dose: 118.0 mg/kg/injection, schedule: Q01DX009 (ip), vehicle: carboxymethylcellulose (CMC)): 152 % of control
T/C (dose: 177.0 mg/kg/injection, schedule: Q01DX001 (ip), vehicle: carboxymethylcellulose (CMC)): 156 % of control
T/C (dose: 200.0 mg/kg/injection, schedule: Q01DX009 (ip), vehicle: carboxymethylcellulose (CMC)): 192 % of control
T/C (dose: 266.0 mg/kg/injection, schedule: Q01DX001 (ip), vehicle: carboxymethylcellulose (CMC)): 159 % of control
T/C (dose: 266.0 mg/kg/injection, schedule: Q01DX009 (ip), vehicle: carboxymethylcellulose (CMC)): 170 % of control
T/C (dose: 400.0 mg/kg/injection, schedule: Q01DX009 (ip), vehicle: carboxymethylcellulose (CMC)): 173 % of control and 186 % of control
T/C (dose: 600.0 mg/kg/injection, schedule: Q01DX001 (ip), vehicle: carboxymethylcellulose (CMC)): 161 % of control and 172 % of control

O=C(O)c1ccccc1C(=O)c1ccc2ccccc2c1
T/C [1]: 94 % of control
T/C [2]: 88 % of control
T/C [6]: 91 % of control

CCCC(C#N)(c1ccccc1)c1ccccc1
T/C [3]: 97 % of control
T/C (dose: 100.0 mg/kg/injection, schedule: Q01DX009 (ip), vehicle: Klucel (hydroxypropylcellulose) (HPC)): 95 % of control
T/C (dose: 100.0 mg/kg/injection, schedule: Q04DX003 (ip), vehicle: Klucel (hydroxypropylcellulose) (HPC)): 91 % of control
T/C [4]: 92 % of control
T/C (dose: 200.0 mg/kg/injection, schedule: Q01DX009 (ip), vehicle: Klucel (hydroxypropylcellulose) (HPC)): 95 % of control
T/C (dose: 200.0 mg/kg/injection, schedule: Q04DX003 (ip), vehicle: Klucel (hydroxypropylcellulose) (HPC)): 104 % of control
T/C [5]: 102 % of control
T/C (dose: 400.0 mg/kg/injection, schedule: Q04DX003 (ip), vehicle: Klucel (hydroxypropylcellulose) (HPC)): 94 % of control

CN(C)Cc1ccc(N)cc1
T/C (dose: 10.0 mg/kg/injection, schedule: Q01DX009 (ip), vehicle: water): 107 % of control
T/C (dose: 20.0 mg/kg/injection, schedule: Q01DX009 (ip), vehicle: water): 105 % of control
T/C (dose: 40.0 mg/kg/injection, schedule: Q01DX009 (ip), vehicle: water): 107 % of control
T/C (dose: 50.0 mg/kg/injection, schedule: Q01DX009 (ip), vehicle: water): 91 % of control
T/C (dose: 80.0 mg/kg/injection, schedule: Q01DX009 (ip), vehicle: water): 96 % of control
T/C (dose: 100.0 mg/kg/injection, schedule: Q01DX009 (ip), vehicle: water): 88 % of control
T/C (dose: 100.0 mg/kg/injection, schedule: Q04DX003 (ip), vehicle: water): 100 % of control
T/C (dose: 200.0 mg/kg/injection, schedule: Q04DX003 (ip), vehicle: water): 102 % of control

COc1cc(C=Nc2ccc(C)c(Cl)c2)ccc1OC(=O)c1ccccc1
T/C [7]: 96 % of control
T/C [8]: 93 % of control
T/C (dose: 400.0 mg/kg/injection, schedule: Q04DX002 (ip), vehicle: saline with Tween-80): 104 % of control

CCCC(C)(C)SSC(C)(C)CCC
T/C (dose: 100.0 mg/kg/injection, schedule: Q01DX009 (ip), vehicle: saline with Tween-80): 98 % of control
T/C [12]: 103 % of control
T/C (dose: 200.0 mg/kg/injection, schedule: Q01DX009 (ip), vehicle: saline with Tween-80): 96 % of control
T/C [13]: 110 % of control
T/C [14]: 117 % of control

CC(=O)OCC1C2CCC(C2)C1C (stereo not given)
T/C (dose: 75.0 mg/kg/injection, schedule: Q01DX001 (ip), vehicle: acetone): 95 % of control
T/C (dose: 150.0 mg/kg/injection, schedule: Q01DX001 (ip), vehicle: acetone): 101 % of control
T/C (dose: 300.0 mg/kg/injection, schedule: Q01DX001 (ip), vehicle: acetone): 114 % of control

CC(CO)CCCC(C)C1CCC2C3CCC4CC(O)CCC4(C)C3CCC12C (stereo not given)
T/C [9]: 95 % of control
T/C [10]: 87 % of control
T/C [11]: 90 % of control

Cc1cc(N(CCCl)CCCl)ccc1N=Nc1ccccc1C(=O)O
T/C (dose: 3.1 mg/kg/injection, schedule: Q01DX Z (ip), vehicle: carboxymethylcellulose (CMC)): 116 % of control
T/C (dose: 5.0 mg/kg/injection, schedule: Q01DX010 (ip), vehicle: saline): 110 % of control and 111 % of control
T/C (dose: 10.0 mg/kg/injection, schedule: Q01DX010 (ip), vehicle: saline): 119 % of control and 122 % of control
T/C (dose: 18.0 mg/kg/injection, schedule: Q01DX Z (ip), vehicle: carboxymethylcellulose (CMC)): 122 % of control
T/C (dose: 20.0 mg/kg/injection, schedule: Q01DX010 (ip), vehicle: saline): 121 % of control
T/C (dose: 25.0 mg/kg/injection, schedule: Q01DX Z (ip), vehicle: carboxymethylcellulose (CMC)): 107 % of control
T/C (dose: 27.0 mg/kg/injection, schedule: Q01DX Z (ip), vehicle: carboxymethylcellulose (CMC)): 114 % of control
T/C (dose: 40.0 mg/kg/injection, schedule: Q01DX010 (ip), vehicle: saline): 88 % of control
T/C (dose: 40.0 mg/kg/injection, schedule: Q01DX Z (ip), vehicle: carboxymethylcellulose (CMC)): 86 % of control

COc1ccc(C=Nc2ccccc2)cc1
T/C [12]: 103 % of control
T/C [13]: 97 % of control
T/C [14]: 97 % of control
